From patent publication US11090319B2, “Therapeutic uses of pharmaceutical compositions comprising cyclic boronic acid ester derivatives” (Melinta Subsidiary Corp., priority 2010, dated 2021) come the findings set out here.

Series [1] has as its system SM1000 Serratia marcescens SME-2. Kind of series: Checkerboard assay, biapenem potentiation. Conditions: Biapenem MIC 8-fold; SM1000 SME-2 class A.
Series [2] has as its target DHA-1, lysate of EC1014 (Escherichia coli, UniProt Q84AE0). Kind of series: Inhibition of ceftazidime hydrolysis by bacterial lysate. Conditions: read-out: IC50 of inhibition of Ceftazidime hydrolysis; EC1014 DHA-1.
Series [3] relates to KP1008 Klebsiella pneumoniae KPC-2. Kind of series: Checkerboard assay, biapenem potentiation. Conditions: Biapenem MIC 8-fold; KP1008 KPC-2 class A.
The target of series [4] is various β-lactamases (bacterial lysates) (Escherichia coli, UniProt Q53TY8). Kind of series: Inhibition of nitrocefin cleavage by bacterial lysates, Table 11. The class given is biochemical. Conditions: lysate EC1010 pAmpC (CMY-6), read-out: NCF IC50 EC1010 pAmpC (CMY-6).
Series [5] addresses SME-2, lysate of SM1000 (Serratia marcescens, UniProt P52682). Kind of series: Inhibition of biapenem hydrolysis by bacterial lysate. Conditions: read-out: IC50 of inhibition of biapenem hydrolysis; SM1000 SME-2.
Series [6] has as its target KPC-3, lysate of EC1007 (Klebsiella pneumoniae, UniProt Q9F663, H272Y). Kind of series: Inhibition of ceftazidime hydrolysis by bacterial lysate.
Series [7] is described as follows: Single dose pharmacokinetics and oral bioavailability in rats, Table 15. The class given is in vivo, Sprague-Dawley (SD) rats. On the procedure:
An in vivo model can be used to evaluate the single dose pharmacokinetic properties and absolute oral bioavailability of a test compound. As described more specifically below, a test compound is administered to Sprague-Dawley (SD) rats either intravenously or orally in a crossover study design and the resulting pharmacokinetic properties and oral bioavailability are measured. […] Plasma samples (0.3 ml) were collected from jugular vein cannula at 0.17, 0.33, 0.47, 0.58, 0.68, 0.75, 1, 2, 3, 4, and 6 hrs after the dosing. […] The samples were mixed and centrifuged for 30 min at 3000×g. 150 μL of supernatant was removed and added to 450 μL of water. HPLC-mass spectrometry: An Agilent 1100HPLC pump, HTC PAL autosampler and a Sciex […] mass spectrometer were used for separation and quantification. Compound 62 and its internal standard were detected using +ESI. Compound 5 and its internal standard were detected using -ESI. LC/MS/MS: 1) Column: Chromolith FastGradient RP-18e, 50×2 mm; 2) Mobile phase A: Aqueous Water with 0.1% TFA, Orgainic phase B: Acetonitrile with 0.1% TFA; Flow Rate: 600 μL/min; Injection volume: 10 μL; […] Plasma concentrations were modeled using WinNonlin® (Pharsight Corp, Mountain View, Calif.). In this experiment, three male Sprague Dawley rats were given Compound 5 by intravenous or oral route. At designated time points, bloods were collected and analyzed. […] Plasma samples were collected at designated time points and analyzed for the presence of Compound 5. […] Male rats (non-fasted) were orally administered 50 mg/kg of the prodrug Compound 62.

Series [8] concerns EC1007 Escherichia coli KPC-3. Kind of series: Checkerboard assay, biapenem potentiation. The following applies: Biapenem MIC 8-fold; EC1007 KPC-3 class A.

pIC50: −log10 of the molar value. Where two headings read alike, the source gives them in different places.

SME-2, lysate of SM1000, sequence (P52682 28-294 limits assumed): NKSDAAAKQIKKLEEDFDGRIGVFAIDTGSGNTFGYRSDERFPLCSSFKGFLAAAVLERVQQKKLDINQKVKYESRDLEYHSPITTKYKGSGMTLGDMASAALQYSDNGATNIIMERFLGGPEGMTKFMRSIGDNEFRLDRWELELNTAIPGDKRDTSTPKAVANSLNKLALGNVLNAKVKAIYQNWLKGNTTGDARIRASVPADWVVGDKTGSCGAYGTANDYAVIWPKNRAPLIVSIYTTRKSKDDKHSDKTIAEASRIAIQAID
various β-lactamases (bacterial lysates), sequence (Q53TY8 entry or part of it): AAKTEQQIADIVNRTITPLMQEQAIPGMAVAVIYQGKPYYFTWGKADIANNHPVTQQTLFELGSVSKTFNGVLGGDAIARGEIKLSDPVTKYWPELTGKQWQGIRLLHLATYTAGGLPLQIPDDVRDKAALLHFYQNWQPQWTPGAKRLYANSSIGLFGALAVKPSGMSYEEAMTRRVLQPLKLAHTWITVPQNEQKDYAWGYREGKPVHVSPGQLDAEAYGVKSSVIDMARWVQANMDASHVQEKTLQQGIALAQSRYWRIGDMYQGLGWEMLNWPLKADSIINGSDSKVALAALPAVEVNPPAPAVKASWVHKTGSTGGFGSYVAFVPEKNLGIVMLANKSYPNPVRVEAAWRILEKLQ
KPC-3, lysate of EC1007, sequence (Q9F663 whole entry H272Y, looked up): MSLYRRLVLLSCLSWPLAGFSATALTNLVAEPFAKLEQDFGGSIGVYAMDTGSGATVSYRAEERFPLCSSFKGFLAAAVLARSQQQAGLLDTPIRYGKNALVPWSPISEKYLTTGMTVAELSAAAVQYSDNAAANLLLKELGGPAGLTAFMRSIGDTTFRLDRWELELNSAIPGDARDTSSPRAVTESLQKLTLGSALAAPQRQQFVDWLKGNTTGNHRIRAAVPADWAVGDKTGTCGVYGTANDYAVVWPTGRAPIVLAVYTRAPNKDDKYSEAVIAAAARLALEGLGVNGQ

Regarding `CC(=O)N[C@H]1CCC(CC(=O)O)OB1O` (stereo partly drawn) [Compound 3, 2-((3R)-3-acetamido-2-hydroxy-1,2-oxaborinan-6-yl)acetic acid], the figures for the MPC8 entry in series [1] and in series [3] were “Y (MPC8 of 0.16 μg/mL to 1 μg/mL)” and “X (MPC8 of less than 0.16 μg/mL)”, respectively. For the same compound, the pIC50 (in general, the negative decadic logarithm of the IC50, by convention in mol/L) in series [2] is under 5.33.

`O=C(O)CC1CC[C@H](NC(=O)C2CC2)B(O)O1` (stereo partly drawn) [Compound 4, 2-((3R)-3-(cyclopropanecarboxamido)-2-hydroxy-1,2-oxaborinan-6-yl)acetic acid]: the pIC50 is under 5.08 in series [4], under 5.38 in series [2], 5.38 to 6.38 in series [5] and over 6.38 in series [6]. The MPC8 entry in series [1] and in series [3] was “X (MPC8 of less than 0.16 μg/mL)” each time.

Turning to `O=C(O)C[C@@H]1CC[C@H](NC(=O)Cc2cccs2)B(O)O1` [Compound 5, 2-((3R,6S)-2-hydroxy-3-(2-(thiophen-2-yl)acetamido)-1,2-oxaborinan-6-yl)acetic acid], the half-life (usually the time in which the quantity being followed falls by half) was 93.6 min in series [7] (Sprague-Dawley, rat, plasma, male SD rats, IV, 20 mg/kg) and 93 min in series [7] (Sprague-Dawley, rat, plasma, male SD rats, PO, 50 mg/kg). For the same compound, the AUC – broadly, the area under the concentration-time curve, a measure of exposure – turned out to be 0.81 mg·h/L in series [7] (Sprague-Dawley, rat, plasma, male SD rats, PO, 50 mg/kg, read-out: AUC); 12.15 mg·h/L in series [7] (male SD rats, IV, 20 mg/kg); 28.19 mg·h/L in series [7] (male SD rats, IV, 50 mg/kg). Moreover, the CL/F in series [7] (Sprague-Dawley, rat, plasma, male SD rats, PO, 50 mg/kg, read-out: CL/F (converted)) was 60.4 L/h/kg; in series [7] (male SD rats, IV, 20 mg/kg), 1.65 L/h/kg; in series [7] (male SD rats, IV, 50 mg/kg) it was 1.77 L/h/kg. The Cmax (commonly the peak of the concentration-time curve) turned out to be 0.29 mg/L in series [7] (Sprague-Dawley, rat, plasma, male SD rats, PO, 50 mg/kg, read-out: Cmax); 19.82 mg/L in series [7] (male SD rats, IV, 20 mg/kg); 45.93 mg/L in series [7] (male SD rats, IV, 50 mg/kg). Moreover, the T1/2 in series [7] (male SD rats, IV, 50 mg/kg) came out at 4.53 h. Besides, the oral absorption result in series [7] (rats, 50 mg/kg orally in saline) is recorded as “not orally absorbed”. Moreover, in series [7] (rats, intravenous 20 or 50 mg/kg), the PK linearity result is recorded as “linear PK”. Further, the pIC50 in series [4] is under 5.17; in series [2], 5.47 to 6.47; in series [5], over 6.47. For the same compound, the MPC8 result in series [1] was “Y (MPC8 of 0.16 μg/mL to 1 μg/mL)”; in series [8], “X (MPC8 of less than 0.16 μg/mL)”.

Turning to `O=C(O)C[C@@H]1CC[C@H](NC(=O)Cc2ccccc2)B(O)O1` [Compound 6, 2-((3R,6S)-2-hydroxy-3-(2-phenylacetamido)-1,2-oxaborinan-6-yl)acetic acid], the pIC50 in series [4] was under 5.16; in series [2] it was under 5.46; in series [5] it was 5.46 to 6.46. Moreover, the figures for the MPC8 result in series [1] and in series [8] were “Y (MPC8 of 0.16 μg/mL to 1 μg/mL)” and “X (MPC8 of less than 0.16 μg/mL)”, respectively.

With `Cl.N[C@H]1CCC(CC(=O)O)OB1O` (stereo partly drawn) [Compound 7, 2-((3R)-3-amino-2-hydroxy-1,2-oxaborinan-6-yl)acetic acid hydrochloride], the pIC50 in series [2] and in series [6] was under 5.32 in each case.
